Experimental data published in patent US6916805B2, “Quinoxalinones as serine protease inhibitors” (Warner-Lambert Company LLC, priority 1998, dated 2005).
One block for each molecule: values may come before it.

Columns and labels:
[1] = system: pooled plasma from human volunteers; test: In vitro diluted prothrombin time (dPT) assay; type: biochemical
Description: Rat, rabbit, dog, and human blood (typically 1.8 mL) was collected and added to a sodium citrate solution (3.8%) to afford a 1:10 dilution. After centrifugation (2000 g for 10 minutes), the blood plasma was stored at −70° C. to 0° C. Conventional prothrombin time (PT) tests were carried out in the presence of various concentrations of test compound and the concentration of test compound required to double the clotting time determined. Typically, the test compound (50 μL volume of varying concentrations 0.1 μM to 1000 μM) and blood plasma (100 μL volume) were incubated at 37° C. for 10 minutes, and then tissue thromboplastin, typically Neoplastine from American Bioproducts, with calcium was added. Fibrin formation and the time required for a clot to form were determined using an automated ST4 Clot Detection System in duplicate.
The effects of Example 2 on dPT were evaluated using pooled plasma from human volunteers.

[2] = target: T1, human prothrombinase (PTase) complex (Homo sapiens, UniProt P00742); test: In vitro assay for human prothrombinase; type: biochemical; settings: PTase activity expressed by thrombin activity
T1 construct: 2.5 pM human factor Xa (Enzyme Research Laboratories); purchased Enzyme Research Laboratories
Description: For determination of IC50 (PTase) of the compounds of the invention, PTase activity was expressed by thrombin activity.
PTase reaction was performed in 100 μL of mixture containing PTase (20 μM) PCPS (Avanti Polar Lipids following a procedure modified from Barenholz et al., Biochemistry, 1977;16:2806-2810) in a 30:70 ratio, 2.5 nM human factor Va (Enzyme Research Laboratories), and 2.5 pM human factor Xa (Enzyme Research Laboratories) in modified HEPES buffer (10 mM Hepes, 150 mM NaCl, 0.1% PEG-8000, 0.05% BSA, 2.5 mM CaCl2, pH 7.4), 3 μM human prothrombin (Enzyme Research Laboratories) and varied concentrations of the test compounds (1 nM to 100 μM in DMSO, 2% final). Reaction was started by co-incubating PTase with test compound for 60 minutes at room temperature, followed by addition of prothrombin for 6 minutes at room temperature. Next, the reaction was quenched by the addition of 100 μL of 20 mM EDTA. Activity of the thrombin (product) is then measured in the presence of 50 μL S2238 (250 μM final, H-D-Phe-Pip-Arg-pNA*Ac, DiaPharma) as substrate by measuring the change at 37° C. in OD405 nm for 5 minutes at 10 second intervals using a ThermoMax® Kinetic Microplate Reader.

[3] = system: rabbit veno-venous shunt model of thrombosis; test: Rabbit veno-venous shunt model of thrombosis; type: in vivo
Description: The effects of Example 2 on thrombosis and hemostasis has been studied in a rabbit veno-venous shunt model of thrombosis. In that model, a plastic shunt which contains cotton thread was inserted into abdominal vena cava and thrombus developed inside the shunt under control conditions. The end points of the experiment are the time to occlusion (TTO) and thrombus weight. Example 2 was given to the rabbit via jugular vein as a single bolus followed by constant infusion for 140 minutes. Three doses have been tested in a total of 15 rabbits (5 rabbits in each group): 30 μg/kg+1 μg/kg/min, 60 μg/kg+2 μg/kg/min, and 480 μg/kg+16 μg/kg/min. […] In the highest dose group, TTO was increased from 17 minutes under control condition to 100 minutes. The net thrombus weight was reduced from 50 to 20 mg in that group. Example 2, at the highest dose, prolonged aPTT, PT, by 5-, and 3.9-fold, respectively.

human thrombin = target: T2, human thrombin (Homo sapiens, UniProt P00734); test: Thrombin IC50, cleavage of Chromozym TH; type: biochemical
T2 construct: purchased Enzyme Research Laboratories
Description: The ability of compounds to act as inhibitors of human thrombin catalytic activity is assessed by determination of that concentration of test substance that inhibits by 50% (IC50) the ability of human thrombin to cleave the chromogenic substrate Chromozym TH (Tosyl-Gly-Pro-Arg-pNA*Ac, Boehringer Mannheim). Typically, 145 μL human thrombin (0.75 nM, Enzyme Research Laboratories) in a HPB buffer (10 mM HEPES, 100 mM NaCl, 0.05% BSA, 0.1% PEG-8000, pH 7.4) and 5 μL of test substance in DMSO (2% final) are incubated for 60 minutes at room temperature. Following preheating to 37° C. for 5 minutes, to this mixture is added 100 μL of Chromozym TH in HPB buffer. The velocity of Chromozym TH hydrolysis is determined at 37° C. by measuring the initial rate of change of the optical density at OD405 nm every 10 seconds for 5 minutes using a ThermoMax® Kinetic Microplate Reader.

human trypsin = test: Trypsin IC50, cleavage of S2222; type: biochemical
Description: The ability of compounds to act as inhibitors of human trypsin catalytic activity is assessed by determination of that concentration of test substance that inhibits by 50% (IC50) the ability of human trypsin to cleave the chromogenic substrate S2222 (N-Bz-L-Ile-L-Glu-L-Gly-L-Arg-p-nitroanilide. HCl, DiaPharma). Typically, 145 μL human trypsin (0.5 nM final) in 10 mM HEPES, 150 mM NaCl, 0.1% BSA, and 5 μL of the test substance in DMSO (2% final) are incubated for 60 minutes at room temperature. Following preheating to 37° C. for 5 minutes, to this mixture is added 100 μL of S2222 in HBSA buffer (100 μM final), and the velocity of S2222 hydrolysis is determined at 37° C. by measuring the optical density at OD405 nm every 10 seconds over 5 minutes using a ThermoMax® Kinetic Microplate Reader.

[4] = system: dog electrolytic injury model of thrombosis; test: Dog electrolytic injury model of thrombosis; type: in vivo
From the text: The effects of Example 2 on thrombosis and hemostasis has been studied in a dog electrolytic injury model of thrombosis. In this model, the thrombosis influencing event is an electrical current is applied to the femoral vein (or artery) by applying an anodal direct current (300 uA) to the intimal surface of the vessel in the presence of restricted blood flow (Goldblatt clamps placed around the vessel). The end points of the experiment are the time to occlusion (TTO) and thrombus weight. […] In the highest dose group, TTO was increased to near maximal effect of 240 minutes in both arteries and veins. The net thrombus weight was reduced from 50 mg to 18 mg [artery] and 110 mg to 15 mg [vein] in the highest dose group. Example 2, at the highest dose, prolonged aPTT, PT, by 1.4-, and 1.75-fold, respectively.

[5] = target: T3, human tissue factor/factor VIIa complex (Homo sapiens, UniProt P08709); test: Tissue factor/factor VIIa inhibition, cleavage of Spectrozyme VIIa; type: biochemical; settings: read-out: VIIa % inhib. @ 100 μM
T3 construct: 50 μL human factor VIIa (Enzyme Research Laboratories); purchased Enzyme Research Laboratories (factor VIIa); American Diagnostica (recombinant tissue factor)
Description: The ability of compounds to act as inhibitors of the catalytic activity of human tissue factor/factor VIIa complex is assessed by determination of that concentration of test substance that inhibits by 50% (IC50 the ability of a complex of human recombinant tissue factor/factor VIIa to cleave the chromogenic substrate Spectrozyme VIIa (CH3SO2-D-CHA-Arg-pNA*AcOH, American Diagnostica). Typically, 50 μL human factor VIIa (Enzyme Research Laboratories) is incubated for 10 minutes as a 1:1 mixture (5 nM final each) with 95 μL recombinant human tissue factor (American Diagnostica) in a modified HBSA buffer (10 mM Hepes, 5 mM CaCl2, 0.1% BSA, pH 8.0). Then, 5 μL of the test substance in DMSO (2% final) is added and incubated for 60 minutes at room temperature. Following preheating to 37° C. for 5 minutes, to this mixture is added 100 μL of Spectrozyme VIIa (500 μM final) in modified HBSA, and the velocity of Spectrozyme VIIa hydrolysis is determined at 37° C. by measuring the optical density at an OD405 nm every 10 seconds over 5 minutes using a ThermoMax® Kinetic Microplate Reader.

human factor Xa = target: T4, human factor Xa (Homo sapiens, UniProt P00742); test: Factor Xa IC50, cleavage of chromogenic substrate S2765; type: biochemical
T4 construct: 145 μL human factor Xa (1 nM final, Enzyme Research Laboratories); purchased Enzyme Research Laboratories
Description: The ability of compounds to act as inhibitors of human factor Xa catalytic activity is assessed by determination of that concentration of test substance that inhibits by 50% (IC50) the ability of human factor Xa to cleave the chromogenic substrate S2765 (N-CBz-D-Arg-L-Gly-L-Arg-p-nitroanilide. 2HCl, DiaPharma). Typically, 145 μL human factor Xa (1 nM final, Enzyme Research Laboratories) in 10 mM HEPES, 150 mM NaCl, 0.1% BSA, pH 7.4 (HBSA buffer), and 5 μL of test substance in DMSO (2% final) are incubated for 60 minutes at room temperature. Following preheating to 37° C. for 5 minutes, to this mixture is added 100 μL of S2765 in HBSA buffer. The velocity of S2765 hydrolysis is determined at 37° C. by measuring the initial rate of change of the optical density at OD405 nm every 10 seconds for 5 minutes using a ThermoMax® Kinetic Microplate Reader.

[6] = three doses, bolus + infusion 140 minutes
[7] = infusion 2.5, 5 and 10 μg/kg/min

T4 sequence (P00742 235-488 limits assumed): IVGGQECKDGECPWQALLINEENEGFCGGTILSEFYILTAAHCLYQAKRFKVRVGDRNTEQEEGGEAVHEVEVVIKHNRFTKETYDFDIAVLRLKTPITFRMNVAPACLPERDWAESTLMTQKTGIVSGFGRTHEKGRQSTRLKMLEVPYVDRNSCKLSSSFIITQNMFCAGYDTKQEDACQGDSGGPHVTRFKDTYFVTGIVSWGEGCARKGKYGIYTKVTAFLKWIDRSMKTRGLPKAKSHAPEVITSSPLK
T4 sequence (P00742 41-179 limits assumed): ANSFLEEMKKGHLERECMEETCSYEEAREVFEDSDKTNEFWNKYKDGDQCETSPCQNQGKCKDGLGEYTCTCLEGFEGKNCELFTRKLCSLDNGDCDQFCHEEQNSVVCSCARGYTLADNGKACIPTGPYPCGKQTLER
T3 sequence (P08709 213-466 limits assumed): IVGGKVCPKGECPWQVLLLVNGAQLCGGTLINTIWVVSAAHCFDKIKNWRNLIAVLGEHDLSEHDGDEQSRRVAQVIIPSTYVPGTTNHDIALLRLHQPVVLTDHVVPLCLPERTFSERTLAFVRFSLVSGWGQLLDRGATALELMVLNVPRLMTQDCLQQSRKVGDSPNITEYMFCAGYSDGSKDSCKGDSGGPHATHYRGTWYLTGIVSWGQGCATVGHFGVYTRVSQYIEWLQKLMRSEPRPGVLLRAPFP
T3 sequence (P08709 61-212 limits assumed): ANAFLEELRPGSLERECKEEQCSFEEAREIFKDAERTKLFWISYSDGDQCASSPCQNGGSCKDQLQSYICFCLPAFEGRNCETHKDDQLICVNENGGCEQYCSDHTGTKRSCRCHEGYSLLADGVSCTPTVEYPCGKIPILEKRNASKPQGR
T3 sequence (P13726 33-295 partner): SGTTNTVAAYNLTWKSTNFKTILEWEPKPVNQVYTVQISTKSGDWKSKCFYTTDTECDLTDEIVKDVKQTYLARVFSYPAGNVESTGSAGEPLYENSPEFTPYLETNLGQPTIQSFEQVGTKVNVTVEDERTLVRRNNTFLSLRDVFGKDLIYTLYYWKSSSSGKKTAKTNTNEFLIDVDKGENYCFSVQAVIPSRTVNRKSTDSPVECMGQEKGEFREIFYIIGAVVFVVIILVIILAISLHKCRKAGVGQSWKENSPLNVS
T1 sequence (P00742 235-488 limits assumed): as the sequence (P00742 235-488 limits assumed) above
T1 sequence (P00742 41-179 limits assumed): as the sequence (P00742 41-179 limits assumed) above
T1 sequence (P12259 29-737 partner limits assumed): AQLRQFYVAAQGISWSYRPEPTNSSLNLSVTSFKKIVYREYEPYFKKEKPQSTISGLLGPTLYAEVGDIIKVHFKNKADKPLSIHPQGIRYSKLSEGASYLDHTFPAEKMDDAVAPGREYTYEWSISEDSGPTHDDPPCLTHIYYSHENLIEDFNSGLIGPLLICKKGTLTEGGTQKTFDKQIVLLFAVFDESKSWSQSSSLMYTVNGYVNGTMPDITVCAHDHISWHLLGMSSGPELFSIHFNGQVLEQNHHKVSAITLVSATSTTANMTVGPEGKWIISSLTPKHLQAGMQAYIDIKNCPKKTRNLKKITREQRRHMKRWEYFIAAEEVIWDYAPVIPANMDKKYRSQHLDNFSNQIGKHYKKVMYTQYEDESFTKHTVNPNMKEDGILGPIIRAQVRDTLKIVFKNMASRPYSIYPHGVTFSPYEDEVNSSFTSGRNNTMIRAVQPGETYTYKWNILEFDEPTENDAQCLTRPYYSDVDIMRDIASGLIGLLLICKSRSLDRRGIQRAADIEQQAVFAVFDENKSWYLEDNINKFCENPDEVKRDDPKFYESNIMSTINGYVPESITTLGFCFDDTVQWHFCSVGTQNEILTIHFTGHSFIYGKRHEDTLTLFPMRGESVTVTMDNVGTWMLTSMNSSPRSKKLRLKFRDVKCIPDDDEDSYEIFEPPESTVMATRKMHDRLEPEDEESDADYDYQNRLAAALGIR
T1 sequence (P12259 1574-2224 partner limits assumed): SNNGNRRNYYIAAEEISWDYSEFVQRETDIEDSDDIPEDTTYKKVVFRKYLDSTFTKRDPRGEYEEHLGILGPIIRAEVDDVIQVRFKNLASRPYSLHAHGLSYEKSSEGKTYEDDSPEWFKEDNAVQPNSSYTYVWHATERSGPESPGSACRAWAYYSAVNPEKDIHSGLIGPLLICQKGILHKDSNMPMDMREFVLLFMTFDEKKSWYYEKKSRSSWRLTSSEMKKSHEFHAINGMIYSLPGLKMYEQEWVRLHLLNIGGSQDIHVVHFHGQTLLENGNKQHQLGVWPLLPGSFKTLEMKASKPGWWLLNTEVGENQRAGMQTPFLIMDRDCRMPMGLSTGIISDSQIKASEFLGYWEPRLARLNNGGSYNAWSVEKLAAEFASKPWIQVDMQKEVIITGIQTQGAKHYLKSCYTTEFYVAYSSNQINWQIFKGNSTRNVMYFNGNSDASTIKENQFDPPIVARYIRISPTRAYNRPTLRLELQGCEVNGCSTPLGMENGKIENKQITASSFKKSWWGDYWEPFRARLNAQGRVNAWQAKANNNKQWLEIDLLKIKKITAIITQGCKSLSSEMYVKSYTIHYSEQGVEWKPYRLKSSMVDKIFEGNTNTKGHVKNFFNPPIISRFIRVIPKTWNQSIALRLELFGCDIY

IC50 [2]: 1.5 nM
IC50 (human thrombin): 7020 nM
IC50 (human trypsin): 2450 nM
inhibition at 100 µM [5]: 13%
IC50 (human factor Xa): 9 nM
SMILES: C[C@@H]1CCC[C@H](C)N1CCCCCn1c(=O)c(-c2cc(C(=N)N)ccc2O)nc2ccccc21 [Example 2, 3-(4-5-[(2R,6S)-2,6-dimethyltetrahydro-1(2H)-pyridinyl]pentyl-3-oxo-3,4-dihydro-2-quinoxalinyl)-4-hydroxybenzenecarboximidamide]
concentration which caused 2 fold prolongation of dPT [1]: 0.05 µM
fold increase in dPT ([1]; 0.1 μM): 3.2 fold
effect on dPT ([1]; over concentrations): concentration-dependently prolonged dPT
prolongation of PT ([3]; highest dose): 3.9 fold
prolongation of aPTT ([3]; highest dose): 5 fold
net thrombus weight ([3]; highest dose 480 μg/kg + 16 μg/kg/min iv, control 50 mg): 20 mg
time to occlusion (TTO) ([3]; highest dose 480 μg/kg + 16 μg/kg/min iv, control 17 minutes): 100 min
effect on net thrombus weight [3, 6]: reduced the net thrombus weight
effect on time to occlusion [3, 6]: dose-dependently prolonged the time to occlusion
prolongation of PT ([4]; highest dose): 1.75 fold
prolongation of aPTT ([4]; highest dose): 1.4 fold
time to occlusion (TTO) ([4]; highest dose 10 μg/kg/min infusion, both arteries and veins): ~240 min
net thrombus weight [artery] ([4]; highest dose 10 μg/kg/min, artery, control 50 mg): 18 mg
net thrombus weight [vein] ([4]; highest dose 10 μg/kg/min, vein, control 110 mg): 15 mg
effect on net thrombus weight [4, 7]: reduced the net thrombus weight
effect on time to occlusion [4, 7]: dose-dependently prolonged the time to occlusion

IC50 (human thrombin): 2960 nM
IC50 (human trypsin): 2030 nM
inhibition at 100 µM [5]: 16%
IC50 (human factor Xa): 65 nM
SMILES: C[C@@H]1CCC[C@H](C)N1CCCCCn1c(=O)c(-c2cccc(C(=N)N)c2)nc2ccccc21 [Example 1, 3-[3-(Amidino)phenyl]-1-{5-[(2R,6S)-2,6-dimethylhexahydro-1-pyridinyl]pentyl}-1,2-dihydro-2-quinoxalinone]
